US11117898B2, “Pyrazolo-heteroaryl derivative, preparation method and medical use thereof” (Jiangsu Hengrui Medicine Co., Ltd., priority 2016, dated 2021)

What was measured:
human TLR7 = human TLR7 (Homo sapiens (Human), UniProt Q9NYK1); assay: Agonistic activity on human TLR7 in HEK-Blue hTLR7 stably transfected cells; type: cell-based; conditions: for EC50: OD 620 nm
Protocol: The activation effect of the compounds of the present invention on the hTLR7 protein expressed by the HEK-Blue™ hTLR7 stably transfected cells was determined by the following experimental method:
(§1) A bag of HEK-Blue detection dry powder was dissolved in 50 ml of water free of endotoxin, and the solution was then placed in an incubator at 37° C. for 10 minutes followed by sterile filtration to prepare a HEK-Blue detection medium. The compound was firstly formulated into a 20 mM stock solution, then diluted with pure DMSO to a maximum concentration of 6×10^6 nM, and a total of 10 points were obtained by a 3-fold gradient dilution.
(§2) The above formulated compound was firstly diluted 20-fold with the medium, then 20 μl of the diluted compound were added to each well. The supernate was removed from the HEK-Blue™ hTLR7 cells, to which 2-5 ml of pre-warmed PBS were then added. The cells were placed in an incubator for 1-2 minutes, gently pipetted, and counted by trypan blue staining. The cells were re-suspended in the HEK-Blue detection medium to adjust the concentration to 2.2×10^5 cells/ml. 180 μl of cells were added to the above 96-well plate already added with 20 μl of the compounds, and incubated at 37° C. for 6-16 hours.
The activation effect of the compounds of the present invention on human TLR7 can be determined by the above test, and the obtained EC50 values are shown in Table 1.

human TLR8 = human TLR8 (Homo sapiens (Human), UniProt Q9NR97); assay: Agonistic activity on human TLR8 in HEK-Blue hTLR8 stably transfected cells; type: cell-based; conditions: for EC50: OD 620 nm
Protocol: The activation effect of the compounds of the present invention on the hTLR8 protein expressed by the HEK-Blue™ hTLR8 stably transfected cells was determined by the following experimental method:
as §1, with “dilution. The compound was firstly diluted 20-fold with the medium, then 20 μl of the diluted compound were added to each well.” for “dilution.”
as §2, with “The” for “The above formulated compound was firstly diluted 20-fold with the medium, then 20 μl of the diluted compound were added to each well. The”, “hTLR8” for “hTLR7”
The activation effect of the compounds of the present invention on human TLR8 can be determined by the above test, and the obtained EC50 values are shown in Table 2.

CYP3A4 [1] = molecular target: T1, CYP3A4 (Homo sapiens (Human), UniProt P08684); assay: Inhibition of the midazolam metabolite site of CYP3A4 in human liver microsomes; type: in vitro ADME; conditions: probe substrate midazolam
Protocol: The effect of the compounds of the present invention on the enzyme activity of midazolam metabolite site of CYP3A4 in human liver microsomes was determined by the following experimental method:
(§3) 100 mM PBS buffer was formulated, which was then used to formulate 2.5 mg/ml microsome solution and 5 mM NADPH solution. The 5× concentration of the compound working solution was diluted with PBS gradient (150, 50, 15, 5, 1.5, 0.15, 0.015, 0 μM). The 5× concentration of ketoconazole working solution was diluted with PBS gradient (150, 50, 15, 5, 1.5, 0.15, 0.015, 0 μM). Dextromethorphan working solution was diluted with PBS to a concentration of 50 μM.
(§4) 20 μl of 2.5 mg/ml microsome solution, 20 μl of 50 μM testosterone working solution, 20 μl of MgCl2 solution and 20 μl of the compound working solution (150, 50, 15, 5, 1.5, 0.15, 0.015, 0 μM, different reaction systems for each concentration) were taken respectively and mixed well. For the positive control group, the compound was replaced with the same concentration of ketoconazole. The mixture together with 5 mM NADPH solution were pre-incubated at 37° C. for 5 minutes. After 5 minutes, 20 μl of NADPH were added to each well, the reaction was started and incubated for 30 minutes. All the incubated samples were present in duplicate. After 30 minutes, 250 μl of acetonitrile containing internal standard were added to all samples, mixed well, shaken at 800 rpm for 10 minutes, and then centrifuged at 3700 rpm for 10 minutes. 80 μl of the supernatant were taken and analyzed by LC-MS/MS.
The data were calculated by Graphpad Prism to obtain the IC50 values of the compounds on the midazolam metabolite site of CYP3A4.

CYP2D6 = CYP2D6 (Homo sapiens (Human), UniProt P10635); assay: Inhibition of the enzyme activity of CYP2D6 in human liver microsomes; type: in vitro ADME; conditions: probe substrate dextromethorphan
Protocol: The effect of the compounds of the present invention on the enzyme activity of CYP2D6 in human liver microsomes was determined by the following experimental method:
as §3, with “quinidine” for “ketoconazole”
as §4, with “quinidine.” for “ketoconazole.”
The data were calculated by Graphpad Prism to obtain the IC50 values of the compounds on the metabolite site of CYP2D6.

CYP3A4 [2] = molecular target: T1, CYP3A4; assay: Inhibition of the testosterone metabolite site of CYP3A4 in human liver microsomes; type: in vitro ADME; conditions: probe substrate testosterone
Protocol: The effect of the compounds of the present invention on the enzyme activity of testosterone metabolite site of CYP3A4 in human liver microsomes was determined by the following experimental method:
as §3, §4
The data were calculated by Graphpad Prism to obtain the IC50 values of the compounds on the testosterone metabolite site of CYP3A4.

PBMC = assay: Stimulation of the secretion of IFN-α from peripheral blood mononuclear cells (PBMC); type: cell-based, human; conditions: minimal effective concentration: lowest concentration giving cytokine level at least 3 times the minimum detection limit; 24 hours incubation
Protocol: The ability of the compounds of the present invention to stimulate the secretion of IFN-α from PBMC was determined by the following experimental method:
The compound was diluted with pure DMSO to a maximum concentration of 5 mM, and a total of 9 points were obtained by a 4-fold gradient dilution. 4 μl of the compound were then added to 196 μl of RMPI 1640 medium containing 10% FBS and mixed well. 50 μl of the mixture were taken from each well and added to a new 96-well plate.
All reagents were equilibrated to room temperature. 60 ml of blood and PBS+2% FBS were added to a 250 ml culture flask, gently pipetted, mixed well and diluted. 15 ml of lymphocyte separation solution Ficoll-Paque PREMIUM and then 30 ml of diluted blood were added to a 50 ml PBMC centrifuge tube SepMate™-50. The mixture was centrifuged at 1200 g for 10 minutes at room temperature. The supernatant was taken and then centrifuged at 300 g for 8 minutes. The cells were re-suspended in the RMPI 1640 medium containing 10% FBS and counted, and the number of PBMCs was adjusted to 3.33×10^6 cells/ml. 150 μl of the cell solution were added to the plate added with the compound, and incubated in an incubator at 37° C., in 5.0% CO2 for 24 hours.
The cell culture plate was placed in a centrifuge, and centrifuged at 1200 rpm for 10 minutes at room temperature. 150 μl of the supernatant were taken from each well. The reagents in the human IFN-α kit were first equilibrated to normal temperature. The anti-IFN-α-Eu^3+-Cryptate conjugate and the anti-IFN-α-d2-conjugate were formulated in the dark according to the kit instructions, and both of them were mixed well with the conjugate buffer at a ratio of 1:40. 16 μl of the supernatant obtained by centrifugation were then added to each well. 2 μl of anti-IFN-α-Eu^3+-Cryptate conjugate and anti-IFN-α-d2-conjugate formulated just now were then added to each well. The plate was shaken and mixed well, and incubated in the dark at room temperature for 3 hours.
The PHERAStar was read in the HTRF mode. The lowest compound concentration that stimulated cytokine levels of at least 3 times higher than the minimum detection limit was defined as the minimal effective concentration (MEC) value of the compound in the cytokine stimulation test.
The ability of the compounds of the present invention to stimulate the secretion of IFN-α from PBMC was determined by the above test, and the obtained MEC values are shown in Table 3.

Sequence of CYP2D6 (P10635 whole entry): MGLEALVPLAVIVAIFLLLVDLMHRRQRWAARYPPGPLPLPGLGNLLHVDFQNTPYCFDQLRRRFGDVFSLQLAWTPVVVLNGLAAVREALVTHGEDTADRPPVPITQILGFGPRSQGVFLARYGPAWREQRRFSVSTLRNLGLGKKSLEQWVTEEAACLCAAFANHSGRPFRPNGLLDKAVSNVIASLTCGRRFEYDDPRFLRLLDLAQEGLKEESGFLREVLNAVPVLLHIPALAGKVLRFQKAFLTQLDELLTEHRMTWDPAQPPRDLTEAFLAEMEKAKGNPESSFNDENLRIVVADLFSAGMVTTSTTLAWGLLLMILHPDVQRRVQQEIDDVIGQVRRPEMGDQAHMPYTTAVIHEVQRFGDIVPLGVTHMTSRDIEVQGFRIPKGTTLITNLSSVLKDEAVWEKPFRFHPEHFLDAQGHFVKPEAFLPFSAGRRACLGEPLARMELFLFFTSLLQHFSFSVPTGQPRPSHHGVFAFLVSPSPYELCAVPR
T1 sequence (P08684 whole entry): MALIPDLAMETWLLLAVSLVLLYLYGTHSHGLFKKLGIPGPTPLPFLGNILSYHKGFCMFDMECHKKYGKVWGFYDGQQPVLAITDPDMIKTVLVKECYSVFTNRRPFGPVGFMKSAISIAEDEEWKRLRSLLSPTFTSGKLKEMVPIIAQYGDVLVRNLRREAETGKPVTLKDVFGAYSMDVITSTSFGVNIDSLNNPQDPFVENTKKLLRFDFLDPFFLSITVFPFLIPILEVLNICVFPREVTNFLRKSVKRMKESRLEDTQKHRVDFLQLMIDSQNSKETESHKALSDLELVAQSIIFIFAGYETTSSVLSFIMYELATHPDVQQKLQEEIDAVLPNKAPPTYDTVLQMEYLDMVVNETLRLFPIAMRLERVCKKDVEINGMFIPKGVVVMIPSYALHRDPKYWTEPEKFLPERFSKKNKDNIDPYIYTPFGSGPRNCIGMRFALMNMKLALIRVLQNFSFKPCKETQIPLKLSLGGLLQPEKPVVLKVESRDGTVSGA
Sequence of human TLR8 (Q9NR97 27-1041): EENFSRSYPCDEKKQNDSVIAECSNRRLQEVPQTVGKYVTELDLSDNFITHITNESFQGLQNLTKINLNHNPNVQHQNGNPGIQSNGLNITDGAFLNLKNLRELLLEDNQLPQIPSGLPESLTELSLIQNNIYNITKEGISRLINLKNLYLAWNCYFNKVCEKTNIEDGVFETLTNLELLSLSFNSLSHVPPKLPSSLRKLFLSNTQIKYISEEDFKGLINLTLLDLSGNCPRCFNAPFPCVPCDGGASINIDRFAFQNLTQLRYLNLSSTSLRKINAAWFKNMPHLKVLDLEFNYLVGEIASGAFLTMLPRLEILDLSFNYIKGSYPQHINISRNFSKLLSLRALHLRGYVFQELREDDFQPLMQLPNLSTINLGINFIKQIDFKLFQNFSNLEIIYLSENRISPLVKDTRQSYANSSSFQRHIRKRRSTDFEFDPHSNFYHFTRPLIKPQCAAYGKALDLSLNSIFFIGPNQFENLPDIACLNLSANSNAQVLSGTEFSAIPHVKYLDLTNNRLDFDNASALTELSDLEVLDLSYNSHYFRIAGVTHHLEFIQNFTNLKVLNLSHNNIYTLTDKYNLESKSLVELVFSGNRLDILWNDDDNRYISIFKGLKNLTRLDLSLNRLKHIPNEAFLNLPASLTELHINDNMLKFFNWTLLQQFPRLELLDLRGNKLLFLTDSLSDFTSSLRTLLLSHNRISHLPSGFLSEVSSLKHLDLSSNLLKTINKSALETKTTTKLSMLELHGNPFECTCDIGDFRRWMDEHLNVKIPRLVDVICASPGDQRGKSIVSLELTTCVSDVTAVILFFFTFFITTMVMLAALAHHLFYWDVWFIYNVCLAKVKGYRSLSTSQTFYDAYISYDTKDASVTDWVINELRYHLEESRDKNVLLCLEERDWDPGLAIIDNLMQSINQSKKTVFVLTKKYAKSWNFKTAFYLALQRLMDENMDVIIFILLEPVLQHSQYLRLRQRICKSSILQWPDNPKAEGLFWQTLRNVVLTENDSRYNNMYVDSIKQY
Sequence of human TLR7 (Q9NYK1 27-1049): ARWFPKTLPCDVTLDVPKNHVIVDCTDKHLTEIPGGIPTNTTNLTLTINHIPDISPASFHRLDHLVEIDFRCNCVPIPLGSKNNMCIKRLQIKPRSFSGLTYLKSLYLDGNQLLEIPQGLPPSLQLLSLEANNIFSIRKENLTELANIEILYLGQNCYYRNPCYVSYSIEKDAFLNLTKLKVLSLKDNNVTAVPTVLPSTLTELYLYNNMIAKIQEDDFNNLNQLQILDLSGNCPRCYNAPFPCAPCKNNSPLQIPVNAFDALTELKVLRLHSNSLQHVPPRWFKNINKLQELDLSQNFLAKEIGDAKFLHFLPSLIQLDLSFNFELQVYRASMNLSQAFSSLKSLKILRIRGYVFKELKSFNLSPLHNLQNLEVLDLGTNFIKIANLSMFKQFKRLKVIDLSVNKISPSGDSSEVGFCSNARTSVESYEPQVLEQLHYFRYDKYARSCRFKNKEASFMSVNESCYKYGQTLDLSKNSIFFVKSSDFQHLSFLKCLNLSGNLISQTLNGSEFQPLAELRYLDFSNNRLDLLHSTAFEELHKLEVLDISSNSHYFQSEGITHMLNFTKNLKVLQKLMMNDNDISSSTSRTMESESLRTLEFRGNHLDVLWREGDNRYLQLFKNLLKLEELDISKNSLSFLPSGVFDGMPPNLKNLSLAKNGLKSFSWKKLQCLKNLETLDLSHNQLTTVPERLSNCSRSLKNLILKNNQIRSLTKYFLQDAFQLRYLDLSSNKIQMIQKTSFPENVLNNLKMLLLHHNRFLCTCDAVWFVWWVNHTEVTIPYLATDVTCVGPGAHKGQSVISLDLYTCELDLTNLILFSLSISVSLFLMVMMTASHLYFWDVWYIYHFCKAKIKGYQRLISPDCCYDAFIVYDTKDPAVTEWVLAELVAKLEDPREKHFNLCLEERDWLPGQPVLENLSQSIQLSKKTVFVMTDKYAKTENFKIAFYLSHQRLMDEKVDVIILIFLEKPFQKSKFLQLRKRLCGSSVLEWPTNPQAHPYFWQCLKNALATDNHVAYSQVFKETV

SMILES	Emax (human TLR7) [%]	EC50 (human TLR7) [µM]	Emax (human TLR8) [%]	EC50 (human TLR8) [µM]	IC50 (CYP3A4 [1]) [µM]	IC50 (CYP2D6) [µM]	IC50 (CYP3A4 [2]) [µM]	MEC to stimulate the secretion of IFN-α from PBMC (PBMC) [nM]
CCCCOc1nc(N)c2cnn(Cc3cccc(CN4CCCCC4)c3)c2n1 [Example 6, 6-Butoxy-1-(3-(piperidin-1-ylmethyl)benzyl)-1H-pyrazolo[3,4-d]pyrimidin-4-amine]	91	0.233	35	> 6	10	10	3	–
CCCCOc1nc(N)c2cnn(Cc3ccc(CN4CCCC4)c(F)c3)c2n1 [Example 9, 6-Butoxy-1-(3-fluoro-4-(pyrrolidin-1-ylmethyl)benzyl)-1H-pyrazolo[3,4-d]pyrimidin-4-amine]	96	0.128	–	–	–	–	–	–
COCC(C)Oc1nc(N)c2cnn(Cc3ccc(CN4CCCC4)cc3)c2n1 (stereo not shown) [Example 8, 6-((1-Methoxypropan-2-yl)oxy)-1-(4-(pyrrolidin-1-ylmethyl)benzyl)-1H-pyrazolo[3,4-d]pyrimidin-4-amine]	104	0.217	2	> 30	–	–	–	–
CCCCOc1nc(N)c2cnn(Cc3ccc(CN4CCCC4)cc3)c2n1 [Example 1, 6-Butoxy-1-(4-(pyrrolidin-1-ylmethyl)benzyl)-1H-pyrazolo[3,4-d]pyrimidin-4-amine]	100	–	8	> 30	–	> 30	–	6
CCCCOc1nc(N)c2cnn(Cc3cccc(CN4CCC4)c3)c2n1 [Example 5, 1-(3-(Azetidin-1-ylmethyl)benzyl)-6-butoxy-1H-pyrazolo[3,4-d]pyrimidin-4-amine]	–	–	–	–	–	–	–	41

Second part, led by results:

Emax (human TLR7) [%]	EC50 (human TLR7) [µM]	Emax (human TLR8) [%]	EC50 (human TLR8) [µM]	SMILES	IC50 (CYP3A4 [1]) [µM]	IC50 (CYP2D6) [µM]	IC50 (CYP3A4 [2]) [µM]	MEC to stimulate the secretion of IFN-α from PBMC (PBMC) [nM]
78	0.388	5	> 30	CCCCC(=O)c1nc(N)c2cnn(Cc3ccc(CN4CCCC4)cc3)c2n1 [Example 12]	16	16	> 30	–
85	0.335	0	> 30	CCCNC(=O)c1nc(N)c2cnn(Cc3ccc(CN4CCCC4)cc3)c2n1 [Example 11, 4-Amino-N-propyl-1-(4-(pyrrolidin-1-ylmethyl)benzyl)-1H-pyrazolo[3,4-d]pyrimidine-6-carboxamide]	–	–	–	–
79	0.349	0	> 30	CCCCNc1nc(N)c2cnn(Cc3ccc(CN4CCCC4)cc3)c2n1 [Example 10, N^6-Butyl-1-(4-(pyrrolidin-1-ylmethyl)benzyl)-1H-pyrazolo[3,4-d]pyrimidine-4,6-diamine]	–	–	–	–
